Residues, ends and D or L forms follow the SMILES beside them.
Legend:
CD1 mice = assay: Example 52: ATP synthesis following a burn injury (^31P NMR, EPR); format: in vivo, mouse
Procedure: Material and Methods. Male 6-week-old CD1 mice weighing 20-25 g will be anesthetized by intraperitoneal (i.p.) injection of 40 mg/kg pentobarbital sodium. The left hind limb of all mice in all groups will be shaved. Burn subjects will be subjected to a nonlethal scald injury of 3-5% total body surface area (TBSA) by immersing the left hind limb in 90° C. water for 3 seconds.
NMR spectroscopy is described in detail in Padfield, et al., Proc. Natl. Acad. Sci., 102:5368-5373 (2005). Briefly, mice will be randomized into 1) burn+control vehicle, 2) burn+peptide conjugate, 3) non-burn+control vehicle, 4) non-burn+peptide conjugate, 5) burn+aromatic-cationic peptides, 6) non-burn+aromatic-cationic peptides, 7) burn+SPN10, 8) non-burn+SPN10, 9) burn+SPN10+aromatic-cationic peptides, and 10) non-burn+SPN10+aromatic-cationic peptides groups. […] T1 relaxation times of Pi and phosphocreatine (PCr) will be measured using an inversion recovery pulse sequence in the presence of γ-ATP saturation. […]

mitochondrial aconitase = assay: Example 53: mitochondrial aconitase activity in burn injury; conditions: mouse, in vivo
From the text: Murine subjects will be subjected to burn injury or sham and administered peptide conjugates, aromatic-cationic peptides, SPN10(s) alone or in combination with aromatic-cationic peptides, or control vehicle as described above. Mitochondria will be isolated from burned and control tissues and mitochondrial aconitase activity assessed using a commercially available kit.

Question: Which “ATP synthesis rate in burned mice” value (CD1 mice; compared to burn controls) does the source give for `N=C(N)NCCC[C@H](NC(=O)[C@@H](N)Cc1c[nH]c2ccccc12)C(=O)N[C@@H](Cc1c[nH]c2ccccc12)C(=O)N[C@@H](CCCCN)C(N)=O` [SPN10, H-L-Trp-L-Arg-L-Trp-L-Lys-NH2] (H-WRWK-NH2) here?
Answer: significant increase in the ATP synthesis rate

Question: What about the “ATP synthesis rate in control healthy mice” value (CD1 mice; non-burn) of the same molecule?
Answer: increase ATP synthesis rate substantially

Question: And the “mitochondrial aconitase activity after burn injury” value (mitochondrial aconitase)?
Answer: reduce mitochondrial aconitase activity to sham control levels

Source: patent US20240108740A1, “THERAPEUTIC COMPOSITIONS INCLUDING SPN10 AND USES THEREOF” (Stealth BioTherapeutics Inc., priority 2022, published 2024)
